Data set [1] in a line: Clinical trial, pharmacokinetic study of the dose-escalation cohort. The format is in vivo, human. The settings on record: patients, first 4-week cycle.
Procedure: Based on the patient's weight, a dose escalation design with five dose cohorts of 2, 4, 6, 9 and 12 mg/kg was employed, which were injected intravenously once every two weeks, every 28 days as a cycle, and were given every cycle until the disease progressed or an intolerable toxic reaction occurred. The toxicity of all planned dose groups and some intermediate dose groups was evaluated by BLRM. Based on the model analysis, the sponsor and the researcher jointly decided the decision of dose increase.
The nature of data set [2]: Toxicokinetic behavior of the conjugate and released toxin molecules after repeated intravenous dosing. The class given is in vivo, cynomolgus monkeys. To be noted: after the last dosing with 50 mg/kg conjugate A.
Procedure: The cynomolgus monkeys were divided into four groups according to different doses: control group, 25 mg/kg dose group, 50 mg/kg dose group and 75 mg/kg dose group, with 5 males and 5 females in each group. […] For the monkeys in each group, blood samples were collected before and immediately after, and 4 h, 24 h, 48 h, 96 h and 168 h after the first and last dosing (0-1 min after the end of dosing), 1 h before and immediately after the second and third dosing (0-1 min after the end of dosing), and 336 h after the last dosing.

The values below come from patent EP4717277A1, “USE OF DRUG CONJUGATE IN TREATING TUMOR DISEASE AND METHOD THEREFOR” (Sichuan Kelun-Biotech Biopharmaceutical Co., Ltd., priority 2023, dated 2024).

SMILES strings stand for the structures.

As for `CC[C@@]1(O)C(=O)OCc2c1cc1n(c2=O)Cc2c-1nc1ccccc1c2CCN(C(C)C)S(C)(=O)=O` [toxins], in data set [1], the “plasma exposure of free payload (area under the curve (AUC)) relative to that of Conjugate A” value is given as about 5% and the “plasma exposure of free payload (maximum plasma concentration (Cmax)) relative to that of Conjugate A” value is listed as “approximately 6%”. Also, in data set [2] (female monkeys), the “exposure to the toxin molecules” value turned out to be 3850 ng·h/mL. In addition, in data set [2] (male monkeys), the “exposure to the toxin molecules” value stood at 5860 ng·h/mL.
